The term IC50 denotes the concentration that inhibits the measured activity by half. The melting point is the temperature of the solid-liquid transition. Usually solubility (kinetic) stands for solubility judged after dilution from a stock solution rather than from solid.

These results are taken from publication PMC9234964, “Design, Synthesis, and Biological Evaluation of a Novel Series of 4-Guanidinobenzoate Derivatives as Enteropeptidase Inhibitors with Low Systemic Exposure for the Treatment of Obesity” (Journal of Medicinal Chemistry, 2022).

The target in series [1] is T1, human enteropeptidase (Homo sapiens, UniProt P98073).
T1 construct: purchased ITSI-Biosciences, LLC #REN-260
T1 sequence (P98073 whole entry): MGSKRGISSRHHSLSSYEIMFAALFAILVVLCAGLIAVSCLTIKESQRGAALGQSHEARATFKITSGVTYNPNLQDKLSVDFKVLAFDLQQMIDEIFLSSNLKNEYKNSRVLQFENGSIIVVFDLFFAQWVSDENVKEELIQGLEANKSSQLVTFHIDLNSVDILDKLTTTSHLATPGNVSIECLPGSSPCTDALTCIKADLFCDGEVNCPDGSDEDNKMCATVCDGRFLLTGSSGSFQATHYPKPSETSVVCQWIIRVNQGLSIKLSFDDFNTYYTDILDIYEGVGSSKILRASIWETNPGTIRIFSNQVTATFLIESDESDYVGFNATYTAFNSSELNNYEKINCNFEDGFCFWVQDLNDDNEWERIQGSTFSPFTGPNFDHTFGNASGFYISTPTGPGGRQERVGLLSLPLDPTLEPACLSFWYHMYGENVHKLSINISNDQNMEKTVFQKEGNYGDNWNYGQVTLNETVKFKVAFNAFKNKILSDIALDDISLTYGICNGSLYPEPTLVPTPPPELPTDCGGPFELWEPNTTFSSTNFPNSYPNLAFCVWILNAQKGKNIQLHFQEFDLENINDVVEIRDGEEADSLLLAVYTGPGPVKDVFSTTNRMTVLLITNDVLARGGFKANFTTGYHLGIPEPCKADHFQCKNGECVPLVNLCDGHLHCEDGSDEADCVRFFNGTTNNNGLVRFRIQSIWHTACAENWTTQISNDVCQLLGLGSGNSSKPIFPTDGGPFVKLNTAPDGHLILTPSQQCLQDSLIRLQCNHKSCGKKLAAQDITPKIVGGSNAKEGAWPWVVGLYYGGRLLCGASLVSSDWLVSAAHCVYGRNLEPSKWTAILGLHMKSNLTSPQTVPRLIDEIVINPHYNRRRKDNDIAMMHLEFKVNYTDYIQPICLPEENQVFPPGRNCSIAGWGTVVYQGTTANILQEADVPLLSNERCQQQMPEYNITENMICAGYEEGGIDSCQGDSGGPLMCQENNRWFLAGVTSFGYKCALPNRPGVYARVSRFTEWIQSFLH
The series can be described thus: Human enteropeptidase enzyme assay. It counts as biochemical. The conditions noted are these: for IC50: substrate and compound at room temperature, 95% confidence intervals in parentheses. As for the experimental part:
Human recombinant enteropeptidase (#REN-260, ITSI-Biosciences, LLC) was diluted with an assay buffer (50 mM tricine (pH 8.0), 0.01(w/v)% Tween 20, 10 mM CaCl2) to prepare a 24 mU/mL enzyme solution. Subsequently, 5FAM–Abu–[…]CPQ2)–Lys–Lys–NH2 (purity: 97.2%, CPC Scientific, Inc.) was diluted with an assay buffer to prepare a 2.1 μM substrate solution. Compounds were dissolved in DMSO and then diluted in the assay buffer. The compound solution (5 μL/well) and the substrate solution (5 μL/well) were added to a 384-well black plate (#784076, Greiner Bio-One) and mixed. Then, the enzyme solution (5 μL/well) was added to the plate and mixed to start the reaction. The fluorescence intensity was measured at an excitation wavelength of 485 nm and a fluorescence wavelength of 535 nm using a fluorescence plate reader EnVision (PerkinElmer Inc.). Also, the same reaction as above was performed except that the test compound was not added (test compound non-supplemented group). In addition, the same reaction as above was performed except that neither the test compound nor the enzyme was added (control group).
(§1) Inhibition rate (%) = (1 – (fluorescence intensity of the test compound supplemented group – fluorescence intensity of the control group)/(fluorescence intensity of the test compound non-supplemented group – fluorescence intensity of the control group)) × 100.

The target of another series is rat enteropeptidase (Rattus norvegicus, UniProt A0ABK0LTS6). The series can be described thus: Rat enteropeptidase enzyme assay. It counts as biochemical. As for the experimental part: The rat enteropeptidase catalytic subunit (aa 818-1057, GenBank accession no. XM_017597944) was cloned into the BglII-NotI site of the pET32a vector (Millipore). The active rat enteropeptidase catalytic subunit was obtained as described previously.[36] The rat recombinant enteropeptidase was diluted with an assay buffer (50 mM Tricine (pH 8.0), 0.01(w/v)% Tween 20, 10 mM CaCl2) to prepare a 2.4 ng/mL enzyme solution. Subsequently, 5FAM–Abu–[…]CPQ2)–Lys–Lys–NH2 (purity: 97.2%, CPC Scientific, Inc.) was diluted with an assay buffer to prepare a 5.4 μM substrate solution. Compounds were dissolved in DMSO and then diluted in the assay buffer. The compound solution (5 μL/well) and the substrate solution (5 μL/well) were added to a 384-well black plate (#784076, Greiner Bio-One) and mixed. Then, the enzyme solution (5 μL/well) was added to the plate and mixed to start the reaction. The fluorescence intensity was measured at an excitation wavelength of 485 nm and a fluorescence wavelength of 535 nm using a fluorescence plate reader EnVision (PerkinElmer Inc.). […]
Sequence of rat enteropeptidase (A0ABK0LTS6 829-1068): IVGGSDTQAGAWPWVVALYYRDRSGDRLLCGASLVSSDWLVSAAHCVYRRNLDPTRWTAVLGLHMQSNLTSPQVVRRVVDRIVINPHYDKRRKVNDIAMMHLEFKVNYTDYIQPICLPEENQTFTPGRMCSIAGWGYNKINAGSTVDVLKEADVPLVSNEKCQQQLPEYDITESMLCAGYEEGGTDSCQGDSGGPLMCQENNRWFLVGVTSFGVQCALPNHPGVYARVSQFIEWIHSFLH
as §1

Series [2] relates to Human Multi-drug Resistance 1 (MDR-1) Expressing Cells. As to the kind of experiment: Membrane permeability with MDR1-expressing cells (A to B). It counts as in vitro ADME. The conditions noted are these: apical to basolateral, 10 μmol/L, 2 h. As for the experimental part:
The transcellular transport study was performed as reported previously.[40] In brief, the cells were grown in a HTS transwell 96 well permeable support (pore size 0.4 μm, 0.143 cm^2 surface area) with a polyethylene terephthalate membrane (Corning Life Sciences, Lowell, MA, USA) at a density of 1.125 × 10^5 cells/well. The cells were preincubated with M199 at 37 °C for 30 min. Subsequently, transcellular transport was initiated by the addition of M199 to apical compartments containing 10 μmol/L test compounds and terminated by the removal of each assay plate after 2 h. The aliquots in the opposite compartments were subjected to be measured for compound concentration by LC–MS/MS. Permeability was calculated using the permeated compound concentration.

Series [3] can be described thus: Aqueous stability at pH 1.2/6.8. The format is physicochemical. The conditions noted are these: 24 h; for stability at pH 1.2 (% decomposed): pH 1.2, 37 °C; for stability at pH 6.8 (% decomposed): pH 6.8, 37 °C. As for the experimental part: Sample solutions in pH 1.2/6.8 media (first/second fluids for the disintegration test in the Japanese Pharmacopoeia 17th edition, including 10% dimethyl sulfoxide if needed, 10 μg/mL) were prepared for the compounds and incubated at 37 °C. The sample solutions were measured initially and at 24 h using HPLC, and peak analysis was conducted. Residual contents (%) of the compounds in pH 1.2/6.8 media at 37 °C after 24 h of incubation of the initial solutions were calculated using the peak areas.

A further series relates to High-Fat-Diet-Fed Mice. The series can be described thus: Increase in fecal protein output in high-fat-diet-fed mice. It counts as in vivo, mouse. The conditions noted are these: for fecal protein output (fold of 2a): oral. As for the experimental part: A high-fat diet (HFD)-fed mouse (D12079B diet, male, 14–21 weeks old) was used for the in vivo assay. For compound screening, mice were orally administered with either the test compound (10 mg/kg) or 0.5% methylcellulose (MC) as a vehicle control. For the assessment of efficacy by systemic exposure of the compound, mice were subcutaneously administered with compound 2a (10 mg/kg) or saline as a vehicle control and compared with those administered oral treatment (60 mg/kg). Doses were selected to achieve equivalent systemic exposure as the area under the curve over 24 h based on pharmacokinetic data of both oral and subcutaneous administration. Whole feces were collected overnight, and the fecal protein output was evaluated as described previously.[33]

Another series can be described thus: Pharmacokinetics in rats. It counts as in vivo, rat. As for the experimental part:
[…] After administration, blood samples were collected and centrifuged to obtain plasma specimens. The compound concentrations in the plasma were measured using LC–MS/MS.

The next series concerns DIO rats. The series can be described thus: Anti-obesity effects in male DIO rats (repeated dosing, 4 weeks). The format is in vivo, rat. The conditions noted are these: oral, 6b 1, 3 and 10 mg/kg; for body weight change / food intake: (S)-5b 10 mg/kg; for fecal protein output: day 28, (S)-5b 10 mg/kg. As for the experimental part: Six-week-old male DIO F344/Jcl rats were obtained from CLEA Japan (Tokyo, Japan) and fed with a HFD D12451 (45 kcal % fat, 20 kcal % protein, and 35 kcal % carbohydrate; Research Diets, Inc.). The study involved six groups of rats (n = 6): vehicle (0.5% MC), 6b (1, 3, and 10 mg/kg), (S)-5b (SCO-792) (10 mg/kg), and sibutramine (1 mg/kg). […] were orally administered with either the vehicle or compounds starting at 36 weeks of age for 4 weeks. The body weight was monitored every 1–4 days for 4 weeks. The change in body weight is presented as a percentage of the initial body weight. Feces were collected on day 28 and evaluated for pharmacodynamic markers.

The next series deals with DIO mice. The conditions noted are these: cited from earlier work.
For the next series, the system named is enteropeptidase. On the set-up: method as in PMID 33033171. The conditions noted are these: cited from earlier work.
Series [4] has as its target T1, human enteropeptidase. As to the kind of experiment: Dissociation assay (recovery of active enzyme after rapid dilution). The conditions noted are these: rapid dilution after 2 h preincubation of compound and enzyme. The format is biochemical. An excerpt:
Although not all reaction constants for 1c could be identified, the in vitro IC50 value could be used as an indicator of the combination of k1, k–1, and k2. In this case, the IC50 value of a compound is derived from its affinity for enteropeptidase (k1 and k–1) and its reactivity against enteropeptidase (k2). […] As the affinity of a compound for enteropeptidase is expected to largely contribute to the IC50 value based on initial velocities (IC50(initial)) relative to the IC50 value based on the steady state (IC50(app)), we performed chemical modifications based on IC50(initial). […] Because T1/2 can be an indicator of k3, we focused on compounds with low IC50(initial) values and long T1/2 values.
For dissociation assay, compounds were dissolved in DMSO and then diluted in assay buffer (50 mM Tricine pH 8.0, 0.01(w/v)% Tween20, 10 mM CaCl2). 10 μL of compound solution was added in 96-well plate (corning), and then, 10 μL of 100 mU/mL human recombinant enteropeptidase (ITSI-Biosciences) solution was added into the plate and incubated at room temperature for 2 h. […] After incubation, 2 μL of the compound-enzyme mixture was transferred to a 96-well black plate (Corning) and 200 μL of substrate solution (3 μM 5FAM–Abu–[…]CPQ2)–Lys–Lys–NH2 (CPC Scientific)) was added into the well. By rapid dilution, the inhibitor concentration went to 10-fold below the IC50 from 10-fold above the IC50. The fluorescence was measured each 2 min at excitation wavelength 485 nm and emission wavelength 535 nm by EnVision (Perkin Elmer). The progress curves were fitted to following equation to determine the values for koff and dissociation half-life T1/2 according to the following equations. [drawing 4] 1 where t is time and F is fluorescence from initial rate vo to steady state rate vs. [drawing 5] 2

A short description of series [5]: PAMPA (parallel artificial membrane permeability assay). The conditions noted are these: PAMPA. The format is in vitro ADME.
The nature of series [6]: Kinetic aqueous solubility at pH 1.2/6.8. The format is physicochemical. The conditions noted are these: aqueous medium, kinetic from dmso stock.
Series [7] is described as follows: Plasma exposure of 2a in mice (oral and subcutaneous). It counts as in vivo. The conditions noted are these: male, mouse, read-out: AUC0-24h.
[8] abbreviates: 6 min incubation of enzyme, read-out: Human enteropeptidase IC50(initial).
[9] abbreviates: 120 min incubation of enzyme, read-out: Human enteropeptidase IC50(app).

The structures appear in SMILES notation. Where two headings read alike, the source gives them in different places.

As for `N=C(N)Nc1ccc(C(=O)Oc2cccc(C3=NO[C@](CC(=O)O)(C(=O)O)C3)c2)cc1` [6b, (5R)-3-{3-[(4-Carbamimidamidobenzoyl)oxy]phenyl}-5-(carboxymethyl)-4,5-dihydro-1,2-oxazole-5-carboxylic Acid], the melting point was 199 °C (dec.). Moreover, the IC50 at human enteropeptidase [1] (setting [8]) turned out to be 20 nM. For the same compound, on human enteropeptidase [1] (setting [9]), the IC50 was 1.2 nM. The half-inhibitory concentration (IC50) on rat enteropeptidase (120 min, supplement csv, unit inferred, read-out: rat enteropeptidase IC50 (120 min)) amounted to 1.5 nM. Moreover, the “MDR1 (A to B)” value in series [2] is 0 nm/s. For the same compound, in series [3], the “stability at pH 1.2 (% decomposed)” value turned out to be 1.1 % decomposed and the “stability at pH 6.8 (% decomposed)” value was found to be 7.3 % decomposed. The “fecal protein output (fold of 2a)” value in the series on High-Fat-Diet-Fed Mice (10 mg/kg) was 1.29 fold of 2a. Also, in the series “Pharmacokinetics in rats” (1 mg/kg p.o., below the lower limit of quantitation), the “PK in rats, plasma concentration” value is listed as less than 1 ng/mL. Besides, in the series on DIO rats, the body weight change result was “potent body weight loss in a dose-dependent manner”, the food intake entry is recorded as “significant reduction” and the fecal protein output result is listed as “significant increase”.
Regarding `CN(C)C(=O)COC(=O)Cc1ccc(OC(=O)c2ccc(NC(=N)N)cc2)cc1` [camostat], in the series on DIO mice, the body weight entry is reported as “induced body weight loss”. Moreover, the enteropeptidase activity entry with enteropeptidase was “inhibited enteropeptidase activity”.
As for `N=C(N)Nc1ccc(C(=O)Oc2ccc3c(c2)OC[C@H]3CC(=O)N[C@@H](CC(=O)O)C(=O)O)cc1.O` [(S)-5b, N-({(3S)-6-[(4-Carbamimidamidobenzoyl)oxy]-2,3-dihydro-1-benzofuran-3-yl}acetyl)-L-aspartic Acid Hydrate], the IC50 at human enteropeptidase [1] (setting [8]) is 68 nM. Further, 4.6 nM corresponded to half-maximal inhibition against rat enteropeptidase (IC50). Also, the “MDR1 (A to B)” value in series [2] worked out at 0 nm/s. Further, in [3], the “stability at pH 1.2 (% decomposed)” value worked out at 0.2 % decomposed and the “stability at pH 6.8 (% decomposed)” value is listed as 4.4 % decomposed. Moreover, the “fecal protein output (fold of 2a)” value in the series with High-Fat-Diet-Fed Mice (10 mg/kg) was 1.28 fold of 2a. Further, the “PK in rats BA” value in the series “Pharmacokinetics in rats” (10 mg/kg p.o. and 0.2 mg/kg i.v.) stood at 0.4%. Also, in the series on DIO rats, the body weight change entry was “body weight loss”, the food intake result is reported as “reduction” and the fecal protein output entry is recorded as “significant elevation”. In the series on DIO mice, the body weight result is “potent body weight reduction”.
Consider `Cl.N=C(N)Nc1ccc(C(=O)Oc2ccc(CC(=O)N[C@@H](CC(=O)O)C(=O)O)cc2)cc1` [2a, N-({4-[(4-Carbamimidamidobenzoyl)oxy]phenyl}acetyl)-L-aspartic Acid Hydrochloride], for which, on human enteropeptidase [1] (6 min, glycine replaced with aspartic acid), the “fold enhancement in IC50(initial) relative to 1c” value is “five-fold”. The IC50 on human enteropeptidase [1] (setting [8]) was 94 nM; at human enteropeptidase [1] (setting [9]) it was 5.9 nM. On human enteropeptidase [4], the “T1/2, half-time of dissociation from human enteropeptidase” value is more than 2 h. The Papp in series [5] (pH 7.4, read-out: PAMPA at pH 7.4) is 0.2 ×10⁻⁶ cm/s; in series [5] (pH 5.0, read-out: PAMPA at pH 5.0) it was 0.1 ×10⁻⁶ cm/s. For the same compound, the “MDR1 (A to B)” value in series [2] amounted to 0 nm/s. In addition, the “stability at pH 1.2 (% decomposed)” value in series [3] is on record as 2.5 % decomposed. Moreover, the “stability at pH 6.8 (% decomposed)” value in series [3] is on record as 5.0 % decomposed. In addition, the kinetic solubility was 76 µg/mL in series [6] (pH 1.2, simulated gastric fluid, read-out: Kinetic aqueous solubility at pH 1.2) and more than 97 µg/mL in [6] (pH 6.8, aqueous buffer, read-out: Kinetic aqueous solubility at pH 6.8). The “fecal protein output (fold of 2a)” value with High-Fat-Diet-Fed Mice (10 mg/kg) was “(1.00) fold of 2a”. Moreover, in the series with High-Fat-Diet-Fed Mice (oral administration, 60 mg/kg), the “fecal protein content vs vehicle” value is recorded as “significant increase”. Moreover, in the series with High-Fat-Diet-Fed Mice (subcutaneous administration, 10 mg/kg), the “fecal protein levels vs vehicle” value is “did not increase”. For the same compound, the AUC(0-t) at 24 h in series [7] (oral, 60 mg/kg) was found to be 9820 ± 3740 ng·h/mL; in series [7] (sc, subcutaneous, 10 mg/kg), 16000 ± 2640 ng·h/mL.
